Literature values in patent US20230228656A1, “Functionalized Blood Sampling Device and Method for PEth Measurement” (CAPITAINER AB, priority 2020, published 2023).

Test system: PLD
Conditions: literature assessment; considered unsuitable for clinical use; cited from earlier work

| SMILES | potency as PLD inhibitor |
| --- | --- |
| O=C(NCCN1CCC(n2c(=O)[nH]c3cc(Cl)ccc32)CC1)c1ccc(F)cc1 [halopemide] | low potency |
| O=C(NCCN1CCC(n2c(=O)[nH]c3ccccc32)CC1)c1cc2cc(F)ccc2[nH]1 [FIPI, 5-fluoro-2-indolyl-deschlorohalopemide] | low potency |
